Values after ≈ are worked out from the molar mass of the structure shown. Like-named read-outs stand apart in the source and are kept apart here.
Legend:
S. aureus ATCC 29213 [1] = assay: MIC by broth microdilution, S. aureus ATCC 29213; assay type: cell-based; details: for MIC, Antibiotic +NH2-triguan-6C / MIC, Antibiotic +NO2-triamine-2C / MIC, Antibiotic +NO2-triamine-6C: non-covalent mixture; for MIC: Staphylococcus aureus
Experimental: (§1) Methods—Determination of MICs: MICs for S. aureus, E. faecium, E. coli, P aeruginosa, A. baumannii, K. pneumoniae were determined using broth microdilution in accordance with CLSI methods (Wiegand, I.; Hilpert, K.; Hancock, R. E. W. Agar and Broth Dilution Methods to Determine the Minimal Inhibitory Concentration (MIC) of Antimicrobial Substances. Nat. Protoc. 2008, 3, 163-175). One day prior to each MIC experiment, bacterial strains were streaked for single colonies on TSA plates from frozen glycerol stocks stored at −80° C. Three to five colonies from each plate were harvested with a disposable inoculating loop and resuspended in 500 μL of PBS to create a bacterial suspension. Alternatively, a single colony of the appropriate bacterial strain was added to 4 mL TSB for overnight growth at 37° C. with 200 rpm shaking to create a stationary phase bacterial suspension. The suspension was diluted in PBS to an OD600 of 0.1 (˜[…] CFU/ml), and the OD 0.1 suspension was diluted 1:100 in Mueller Hinton broth (MHB, Difco 257530) just prior to inoculating the 96-well polypropylene treatment plate (Costar 3879). A 50 μL portion of inoculum was added to a treatment plate containing 2-fold serial dilutions of compound in MHB (50 μL of treatment/well) to lend a final total volume of 100 μL/well and a final inoculum density of ˜5×10^5 CFU/ml. The completed assay plate was sealed with Parafilm, placed in a lidded plastic tray lined with moistened paper towels, and incubated at 37° C. for approximately 20 hours. The MIC was read as the lowest treatment concentration where no bacterial growth occurred, as determined by OD600 measurements on a microplate reader. If a different plate or media type was used for a particular test, this is noted below the respective table.

S. aureus ATCC 29213 [2] = details: cited from earlier work
C. glutamicum = assay: MIC, resazurin readout, C. glutamicum; assay type: cell-based; details: Corynebacterium glutamicum
Experimental: (§2) MICs for C. glutamicum and the mycobacteria, M. smegmatis and M. abscessus, were determined as follows. A suspension of stationary phase culture was adjusted with PBS to approximately 10^8 CFU/mL and diluted 1:100 in nutrient media just prior to inoculating 96-well polystyrene treatment plates (Costar 3370). Nutrient media was Mueller Hinton Broth for C. glutamicum and Middlebrook media (Middlebrook 7H9 Broth with 0.2% glycerol and 10% OADC supplement, Difco, BD) for mycobacteria. A 50 μL portion of inoculum was added to a treatment plate containing 2-fold serial dilutions of compounds in the same media (50 μL of treatment/well) to lend a final total volume of 100 μL/well and a final inoculum density of ˜5×10^5 CFU/ml. The completed assay plate was sealed with Parafilm, placed in a lidded plastic tray lined with moistened paper towels, and incubated at 37° C. for around 22 h (C. glutamicum), 42-44 h (M. smegmatis) or 46-48 hours (M. abscessus). […] The MIC was identified as the lowest treatment concentration of drug that prevented color change of resazurin from blue to pink/violet, as determined by measuring fluorescence in a black microtiter plate with excitation at 570 nm and emission at 615 nm on a Molecular Devices M5 microplate reader.

[3] = tested on: S. aureus USA400 (MRSA), MW2; assay: Minimum Bacterial Eradication Concentration (MBEC) assay; assay type: cell-based
E. coli UTI89 = assay: MIC by broth microdilution, E. coli UTI89; assay type: cell-based; details: Escherichia coli
Experimental: as §1, with “A 50 μL portion of inoculum was added to a treatment plate containing 2-fold serial dilutions of compound in MHB (50 μL of treatment/well) to lend a final total volume of 100 μL/well and a final inoculum density of ˜5×10^5 CFU/ml. The completed assay plate was sealed with Parafilm, placed in a lidded plastic tray lined with moistened paper towels, and incubated at 37° C. for approximately 20 hours.” left out, “If a different plate or media type was used for a particular test, this is noted below the respective table.” left out

[4] = tested on: E. coli NCTC 13846 (colistin-resistant); assay: MIC by broth microdilution, E. coli NCTC 13846; assay type: cell-based; details: Escherichia coli, NCTC13846
Experimental: as §1, with “A 50 μL portion of inoculum was added to a treatment plate containing 2-fold serial dilutions of compound in MHB (50 μL of treatment/well) to lend a final total volume of 100 μL/well and a final inoculum density of ˜5×10^5 CFU/ml. The completed assay plate was sealed with Parafilm, placed in a lidded plastic tray lined with moistened paper towels, and incubated at 37° C. for approximately 20 hours.” left out, “If a different plate or media type was used for a particular test, this is noted below the respective table.” left out

E. coli BW25113ΔtolC = assay: MIC by broth microdilution, E. coli BW25113ΔtolC; assay type: cell-based; details: Escherichia coli
Experimental: as §1, with “A 50 μL portion of inoculum was added to a treatment plate containing 2-fold serial dilutions of compound in MHB (50 μL of treatment/well) to lend a final total volume of 100 μL/well and a final inoculum density of ˜5×10^5 CFU/ml. The completed assay plate was sealed with Parafilm, placed in a lidded plastic tray lined with moistened paper towels, and incubated at 37° C. for approximately 20 hours.” left out, “If a different plate or media type was used for a particular test, this is noted below the respective table.” left out

A. baumannii ATCC 19606 = assay: MIC by broth microdilution, A. baumannii ATCC 19606; assay type: cell-based; details: Acinetobacter baumannii, ATCC19606
Experimental: as §1, with “A 50 μL portion of inoculum was added to a treatment plate containing 2-fold serial dilutions of compound in MHB (50 μL of treatment/well) to lend a final total volume of 100 μL/well and a final inoculum density of ˜5×10^5 CFU/ml. The completed assay plate was sealed with Parafilm, placed in a lidded plastic tray lined with moistened paper towels, and incubated at 37° C. for approximately 20 hours.” left out, “If a different plate or media type was used for a particular test, this is noted below the respective table.” left out

M. abscessus = assay: MIC, resazurin readout, M. abscessus; assay type: cell-based; details: Mycobacteroides abscessus
Experimental: as §2

E. coli 25922 = assay: Time-kill kinetics against E. coli 25922 (FIG. 2); assay type: cell-based
S. aureus USA400 (MRSA) = assay: MIC by broth microdilution, S. aureus USA400 (MRSA); assay type: cell-based; details: Staphylococcus aureus
Experimental: as §1, with “A 50 μL portion of inoculum was added to a treatment plate containing 2-fold serial dilutions of compound in MHB (50 μL of treatment/well) to lend a final total volume of 100 μL/well and a final inoculum density of ˜5×10^5 CFU/ml. The completed assay plate was sealed with Parafilm, placed in a lidded plastic tray lined with moistened paper towels, and incubated at 37° C. for approximately 20 hours.” left out, “If a different plate or media type was used for a particular test, this is noted below the respective table.” left out

E. coli BW25113 = assay: MIC by broth microdilution, E. coli BW25113; assay type: cell-based; details: Escherichia coli
Experimental: as §1, with “A 50 μL portion of inoculum was added to a treatment plate containing 2-fold serial dilutions of compound in MHB (50 μL of treatment/well) to lend a final total volume of 100 μL/well and a final inoculum density of ˜5×10^5 CFU/ml. The completed assay plate was sealed with Parafilm, placed in a lidded plastic tray lined with moistened paper towels, and incubated at 37° C. for approximately 20 hours.” left out, “If a different plate or media type was used for a particular test, this is noted below the respective table.” left out

M. smegmatis = assay: MIC, resazurin readout, M. smegmatis; assay type: cell-based; details: Mycolicibacterium smegmatis
Experimental: as §2

E. coli ATCC 25922 = assay: MIC by broth microdilution, E. coli ATCC 25922; assay type: cell-based; details: Escherichia coli, ATCC25922
Experimental: as §1

K. pneumoniae BAA-2146 = assay: MIC by broth microdilution, K. pneumoniae BAA-2146; assay type: cell-based; details: Klebsiella pneumoniae, BAA2146
Experimental: as §1, with “A 50 μL portion of inoculum was added to a treatment plate containing 2-fold serial dilutions of compound in MHB (50 μL of treatment/well) to lend a final total volume of 100 μL/well and a final inoculum density of ˜5×10^5 CFU/ml. The completed assay plate was sealed with Parafilm, placed in a lidded plastic tray lined with moistened paper towels, and incubated at 37° C. for approximately 20 hours.” left out, “If a different plate or media type was used for a particular test, this is noted below the respective table.” left out

[5] = S. aureus (ATCC 29213), cation-adjusted MHB2 supplemented with 50 g/L Ca2+
[6] = S. aureus (ATCC 29213), cation-adjusted MHB2, polystyrene microwell plate (Costar 3370)
[7] = S. aureus (ATCC 29213), Mueller Hinton Broth, polypropylene plate

## CCCCCCCCCC(=O)N[C@@H](Cc1c[nH]c2ccccc12)C(=O)N[C@H](CC(N)=O)C(=O)N[C@@H](CC(=O)O)C(=O)N[C@@H]1C(=O)NCC(=O)N[C@@H](CCCN)C(=O)N[C@@H](CC(=O)O)C(=O)N[C@H](C)C(=O)N[C@@H](CC(=O)O)C(=O)NCC(=O)N[C@H](CO)C(=O)N[C@@H]([C@H](C)CC(=O)O)C(=O)N[C@@H](CC(=O)c2ccccc2N)C(=O)O[C@@H]1C [Daptomycin]
S. aureus ATCC 29213 [1]; S. aureus (ATCC 29213), cation-adjusted MHB2 supplemented
  MIC, Antibiotic +NH2-triguan-6C: 0.5 µM (≈ 0.81 µg/mL)
S. aureus ATCC 29213 [1]; [5]
  MIC, Antibiotic +NO2-triamine-2C: 0.5 µM (≈ 0.81 µg/mL)
  MIC, Antibiotic +NO2-triamine-6C: 0.5 µM (≈ 0.81 µg/mL)
S. aureus ATCC 29213 [1]; ATCC29213, 20 h, S. aureus (ATCC 29213), cation-adjusted MHB2 supplemented, read-out: MIC, Antibiotic Alone
  MIC: 0.5 µM (≈ 0.81 µg/mL)
S. aureus ATCC 29213 [2]
  Literature MIC: 0.077 to 0.62 µM

## CN(C)[C@@H]1C(O)=C(C(N)=O)C(=O)[C@@]2(O)C(O)=C3C(=O)c4c(O)cccc4[C@@](C)(O)[C@H]3C[C@@H]12 [Tetracycline]
S. aureus ATCC 29213 [1]; [6]
  MIC, Antibiotic +NH2-triguan-6C: 2 µM (≈ 0.889 µg/mL)
  MIC, Antibiotic +NO2-triamine-2C: 2 µM (≈ 0.889 µg/mL)
  MIC, Antibiotic +NO2-triamine-6C: 2 µM (≈ 0.889 µg/mL)
S. aureus ATCC 29213 [1]; ATCC29213, 20 h, S. aureus (ATCC 29213), cation-adjusted MHB2, polystyrene microwell plate (Costar 3370), read-out: MIC, Antibiotic Alone
  MIC: 2 µM (≈ 0.889 µg/mL)

## CN[C@H](CC(C)C)C(=O)N[C@H]1C(=O)N[C@@H](CC(N)=O)C(=O)N[C@H]2C(=O)N[C@H]3C(=O)N[C@H](C(=O)N[C@H](C(=O)O)c4cc(O)cc(O)c4-c4cc3ccc4O)[C@H](O)c3ccc(c(Cl)c3)Oc3cc2cc(c3O[C@@H]2O[C@H](CO)[C@@H](O)[C@H](O)[C@H]2O[C@H]2C[C@](C)(N)[C@H](O)[C@H](C)O2)Oc2ccc(cc2Cl)[C@H]1O [Vancomycin]
C. glutamicum
  MIC: 0.25 µM (≈ 0.362 µg/mL)
[3]
  MBEC: >512 µM
S. aureus ATCC 29213 [1]; [7]
  MIC, Antibiotic +NH2-triguan-6C: 1 µM (≈ 1.45 µg/mL)
  MIC, Antibiotic +NO2-triamine-2C: 1 µM (≈ 1.45 µg/mL)
  MIC, Antibiotic +NO2-triamine-6C: 0.5 to 1 µM
S. aureus ATCC 29213 [1]; ATCC29213
  MIC: 0.5 to 1 µM (≈ 0.725 to 1.45 µg/mL)
S. aureus ATCC 29213 [1]; ATCC29213, 20 h, read-out: MIC, Antibiotic Alone
  MIC: 0.5 to 1 µM (≈ 0.725 to 1.45 µg/mL)
S. aureus ATCC 29213 [2]
  Literature MIC: 0.34 to 1.4 µM
E. coli UTI89
  MIC: 128 µM (≈ 186 µg/mL)
[4]
  MIC: 64 to 128 µM (≈ 92.8 to 186 µg/mL)
E. coli BW25113ΔtolC
  MIC: 128 to 256 µM (≈ 186 to 371 µg/mL)
A. baumannii ATCC 19606
  MIC: 128 µM (≈ 186 µg/mL)
M. abscessus
  MIC: 64 µM (≈ 92.8 µg/mL)
E. coli 25922
  Concentration at which effective in time-kill: 256 µM
S. aureus USA400 (MRSA)
  MIC: 1 µM (≈ 1.45 µg/mL)
E. coli BW25113
  MIC: 128 µM (≈ 186 µg/mL)
M. smegmatis
  MIC: 8 to 16 µM (≈ 11.6 to 23.2 µg/mL)
E. coli ATCC 25922
  MIC: 128 µM (≈ 186 µg/mL)
K. pneumoniae BAA-2146
  MIC: > 256 µM

— US12653892B2, “Composition and method for new therapeutic agents including guanidinium-presenting dendrimers and branched structures” (priority 2020, dated 2026)
